In PubChem BioAssay (NCI):
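Protocol summary: plate cells (96-well), add compound at 5 concentrations, incubate 48 h, interpolate endpoints linearly. Abbreviation: GI50, concentration required for 50% inhibition of growth. TGI marks complete inhibition of growth.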

Legend:
Experiment in all cases: NCI tumour cell line growth inhibition, 48 h
786-0 renal = test system: 786-0 renal
SK-MEL-2 melanoma = test system: SK-MEL-2 melanoma
A498 renal = test system: A498 renal
UACC-257 melanoma = test system: UACC-257 melanoma
SF-295 CNS = test system: SF-295 CNS
OVCAR-4 ovarian = test system: OVCAR-4 ovarian
NCI-H23 lung = test system: NCI-H23 lung
NCI-H522 lung = test system: NCI-H522 lung
NCI-H226 lung = test system: NCI-H226 lung
IGROV1 ovarian = test system: IGROV1 ovarian

C1CCC([PH+](C2CCCCC2)C2CCCCC2[PH+](C2CCCCC2)C2CCCCC2)CC1.[Au].[CH-]1CCCCC1C1CCCC[N-]1 (stereo not given)
GI50 (786-0 renal): 0.43 µM
TGI (786-0 renal): 1.9 µM
GI50 (SK-MEL-2 melanoma): 0.351 µM
TGI (SK-MEL-2 melanoma): 1.52 µM
GI50 (A498 renal): 0.122 µM
TGI (A498 renal): 0.581 µM
GI50 (UACC-257 melanoma): 0.329 µM
TGI (UACC-257 melanoma): 2.24 µM
GI50 (SF-295 CNS): 0.256 µM
TGI (SF-295 CNS): 0.901 µM

COc1cc2cc(Oc3ccc(NC(=O)Nc4cccc(C(F)(F)F)c4)cc3)c(C)nc2cc1OCCN1CCCCC1
GI50 (786-0 renal): 1.72 µM
TGI (786-0 renal): 3.21 µM
GI50 (OVCAR-4 ovarian): 1.66 µM
TGI (OVCAR-4 ovarian): 3.39 µM
GI50 (NCI-H23 lung): 1.7 µM
TGI (NCI-H23 lung): 3.26 µM
GI50 (NCI-H522 lung): 1.67 µM
TGI (NCI-H522 lung): 3.33 µM
GI50 (NCI-H226 lung): 1.92 µM
TGI (NCI-H226 lung): 4.62 µM
GI50 (A498 renal): 1.45 µM
TGI (A498 renal): 2.9 µM
GI50 (UACC-257 melanoma): 1.86 µM
TGI (UACC-257 melanoma): 3.48 µM
GI50 (SF-295 CNS): 1.8 µM
TGI (SF-295 CNS): 3.24 µM

CCOC(=O)/C(C1=N[C@H](C(=O)OCC)CS1)=C(\C)O
TGI (786-0 renal): > 100 µM
TGI (OVCAR-4 ovarian): > 100 µM
TGI (SK-MEL-2 melanoma): > 100 µM
TGI (NCI-H23 lung): > 100 µM
TGI (IGROV1 ovarian): > 100 µM
TGI (NCI-H522 lung): > 100 µM
TGI (NCI-H226 lung): > 100 µM
TGI (UACC-257 melanoma): > 100 µM
TGI (SF-295 CNS): > 100 µM

ClC(=Nc1cccc2ccccc12)N(c1ccccc1)c1ccccc1
TGI (786-0 renal): > 100 µM
TGI (OVCAR-4 ovarian): > 100 µM
TGI (SK-MEL-2 melanoma): > 100 µM
TGI (NCI-H23 lung): > 100 µM
TGI (IGROV1 ovarian): > 100 µM
TGI (NCI-H522 lung): > 100 µM
TGI (A498 renal): > 100 µM
TGI (UACC-257 melanoma): > 100 µM
TGI (SF-295 CNS): > 100 µM

O=c1c(Cl)nnc2sc3ccccc3n12
GI50 (786-0 renal): 64.7 µM
TGI (786-0 renal): > 100 µM
GI50 (OVCAR-4 ovarian): 46.9 µM
TGI (OVCAR-4 ovarian): > 100 µM
GI50 (SK-MEL-2 melanoma): > 100 µM
TGI (SK-MEL-2 melanoma): > 100 µM
GI50 (NCI-H23 lung): 25.2 µM
TGI (NCI-H23 lung): > 100 µM
GI50 (IGROV1 ovarian): 31.9 µM
TGI (IGROV1 ovarian): > 100 µM
GI50 (NCI-H522 lung): > 100 µM
TGI (NCI-H522 lung): > 100 µM
GI50 (NCI-H226 lung): 43.1 µM
TGI (NCI-H226 lung): > 100 µM
GI50 (A498 renal): > 100 µM
TGI (A498 renal): > 100 µM
GI50 (SF-295 CNS): 45.6 µM
TGI (SF-295 CNS): > 100 µM

N[C@H]1C2C3CC4C5CC(C42)C1(c1ccccc1)C53 (stereo not given in full)
TGI (786-0 renal): > 100 µM
TGI (OVCAR-4 ovarian): > 100 µM
TGI (SK-MEL-2 melanoma): > 100 µM
TGI (NCI-H23 lung): > 100 µM
TGI (IGROV1 ovarian): > 100 µM
TGI (NCI-H522 lung): > 100 µM
TGI (NCI-H226 lung): > 100 µM
TGI (A498 renal): > 100 µM
TGI (SF-295 CNS): > 100 µM

NC(N)=NS(=O)(=O)c1ccc(NC(=O)c2cccc3c(Nc4ccc(S(=O)(=O)N=C(N)N)cc4)c4ccc(Cl)cc4nc23)cc1
TGI (786-0 renal): > 100 µM
TGI (OVCAR-4 ovarian): > 100 µM
TGI (SK-MEL-2 melanoma): > 100 µM
TGI (NCI-H23 lung): > 100 µM
TGI (IGROV1 ovarian): > 100 µM
TGI (NCI-H522 lung): > 100 µM
TGI (A498 renal): > 100 µM
TGI (UACC-257 melanoma): > 100 µM
TGI (SF-295 CNS): > 100 µM

Cc1cc(Br)cc(C)c1NC(=O)C(=O)CC(=O)c1sc(-n2nc(-c3ccccc3)cc2-c2ccccc2)nc1C
TGI (786-0 renal): > 100 µM
TGI (OVCAR-4 ovarian): > 100 µM
TGI (NCI-H23 lung): > 100 µM
TGI (IGROV1 ovarian): > 100 µM
TGI (NCI-H522 lung): > 100 µM
TGI (NCI-H226 lung): > 100 µM
TGI (A498 renal): > 100 µM
TGI (UACC-257 melanoma): > 100 µM
TGI (SF-295 CNS): > 100 µM

CC12OC(C(=O)C13CC3)C1C(=O)c3ccccc3C(=O)C12 (stereo not given)
GI50 (786-0 renal): 18.2 µM
TGI (786-0 renal): 37.6 µM
GI50 (SK-MEL-2 melanoma): 47.1 µM
TGI (SK-MEL-2 melanoma): > 100 µM
GI50 (NCI-H23 lung): 29.5 µM
TGI (NCI-H23 lung): > 100 µM
GI50 (IGROV1 ovarian): 23.1 µM
TGI (IGROV1 ovarian): 65.9 µM
GI50 (NCI-H522 lung): 53.3 µM
TGI (NCI-H522 lung): > 100 µM
GI50 (UACC-257 melanoma): 27.7 µM
TGI (UACC-257 melanoma): 68.8 µM

CCCCOC(=O)C(=O)C(CC(C(=O)Cc1ccccc1)c1ccccc1)C(=O)C=C(C)C (stereo not given)
TGI (786-0 renal): > 100 µM
TGI (OVCAR-4 ovarian): > 100 µM
TGI (SK-MEL-2 melanoma): > 100 µM
TGI (NCI-H23 lung): > 100 µM
TGI (IGROV1 ovarian): > 100 µM
TGI (NCI-H522 lung): > 100 µM
TGI (NCI-H226 lung): > 100 µM
TGI (UACC-257 melanoma): > 100 µM
TGI (SF-295 CNS): > 100 µM
